Assays:
[1] = system: fast voltage-gated sodium currents in rat prefrontal cortex pyramidal neurons; experiment: Patch-clamp, fast voltage-gated sodium currents; assay type: cell-based
Description: Consequently, we determined the influence of compound 14 on the fast activating and fast inactivating voltage-gated sodium currents in rat prefrontal cortex pyramidal neurons using the patch-clamp technique. Maximal currents were evoked by rectangular voltage steps to 0 mV from a physiological holding potential of -65 mV. After recording a stable control, compound 14 was applied to the whole bath for three minutes. […] Therefore, it was very likely that the potent inhibition of sodium currents by compound 14 similar to compound II was one of the mechanisms providing a similar level of anticonvulsant activity. Moreover, the influence of several additional concentrations of compound 14 on voltage-gated sodium currents were tested to confirm the dose–response relationship. In sum, the following concentrations were applied; 0.01 µM, 0.1 µM, 1 µM, 10 µM, and the results obtained were as follows: 0.95 ± 0.05 (p > 0.05, n = 5), 0.84 ± 0.03 (p < 0.05, n = 5), 0.82 ± 0.05 (p < 0.01, n = 5), and 0.77 ± 0.02 (p < 0.01, n = 5), respectively (Figure 9D, currents were normalized to control currents). It is worthy of note that the significant inhibitory effect was observed starting from the concentration of 0.1 µM, whereas no activity was detected at 0.01 µM. Furthermore, a clear dose–response relationship was visible. All the aforementioned results certainly supporting the inhibition of fast voltage-gated sodium currents, seemed to be crucial for the antiseizure activity of compound 14. The methodology of slice preparation, slice preincubation, and patch-clamp technique was the same as in our previous study. In this study, however, we used different recording solutions. The composition of pipette solution was (in mM) CsF (110), NaCl (7), EGTA (3), HEPES-Cl (10), MgCl2 (2), and Na2ATP (4) at pH 7,4. The composition of extracellular solution was (in mM) NaCl (30), choline chloride (90), TEA-Cl (30), CaCl2 (2), MgCl2 (2), glucose (15), HEPES (10), LaCl3 (0.001), and CdCl2 (0.4) at pH 7.4. Compound 14 was tested at concentration of 1 µM.  Figure 9 The influence of compound 14 on fast, voltage-gated sodium current. (A) The influence of tested compound on sodium current is shown on an example neuron. Current traces were evoked once every ten seconds by a rectangular voltage step. […] (B) Example sodium current recordings in control (black trace), after application of compound 14 (1 µM) (blue trace) and after wash-out (red trace). (C) Averaged normalized maximal current amplitudes in control, in the presence of compound 14 (1 µM) and after wash-out. (D) Averaged normalized maximal current amplitudes in control and in the presence of different concentrations of compound 14 (0.01 µM, 0.1 µM, 1 µM, and 10 µM). Statistical significance was analyzed by Graph Pad Prism 8.0.1 software using Tukey post hoc test (C) and Students’ t-test (D). Statistical significance-compared control: * p < 0.05, ** p < 0.01.

[2] = molecular target: Cav1.2 (h) calcium ion channel (Homo sapiens, UniProt Q13936); experiment: Cav1.2 calcium ion channel cell based antagonist calcium flux assay; conditions: HEK293, read-out: % Inhibition of Control Agonist Response, Cav1.2 (h) calcium ion channel cell based antagonist calcium flux assay
[3] = system: mice; experiment: Capsaicin-induced neurogenic pain test; assay type: in vivo; conditions: Mus musculus, ip; mice i.p.
Method: We used the capsaicin-induced pain model to test the impact of compound 14 on neurogenic pain. In this model, the activation of TRPV1 receptors on C-type primary afferents led to the release of inflammatory neuropeptides, contributing to the local and spinal sensitization and excitability.
The experiments were conducted on adult male Albino Swiss mice (CD-1, 18–25 g) and male Wistar rats (Krf:(WI) WU), 180–250 g) as described previously. The minimum number of animals used needed to obtain definite and normally distributed results with the utilized test. Behavioral measures were scored by trained observers, which were blind to experimental conditions. The following devices were used in the experiments: Analgesy Meter (37215, Ugo Basile), Plantar Test Apparatus (EFV5, Commat Ltd., Turkey), Plethysmometer (Plethysmometer 7140, Ugo Basile), Electronic von Frey unit (BIOSEB, France). […]
Data were presented as means ± standard error of the mean (S.E.M). […] Statistically significant differences between groups were calculated using one-way analysis of variance (ANOVA) and the post hoc Dunnett’s multiple comparison test or two-way analysis of variance (ANOVA) and the post hoc Tukey’s comparison when appropriate. […]

[4] = system: mice; experiment: Psychomotor 6 Hz (32 mA) seizure test; assay type: in vivo, mouse; conditions: mice i.p.

Cav1.2 (h) calcium ion channel, sequence (Q13936 whole entry): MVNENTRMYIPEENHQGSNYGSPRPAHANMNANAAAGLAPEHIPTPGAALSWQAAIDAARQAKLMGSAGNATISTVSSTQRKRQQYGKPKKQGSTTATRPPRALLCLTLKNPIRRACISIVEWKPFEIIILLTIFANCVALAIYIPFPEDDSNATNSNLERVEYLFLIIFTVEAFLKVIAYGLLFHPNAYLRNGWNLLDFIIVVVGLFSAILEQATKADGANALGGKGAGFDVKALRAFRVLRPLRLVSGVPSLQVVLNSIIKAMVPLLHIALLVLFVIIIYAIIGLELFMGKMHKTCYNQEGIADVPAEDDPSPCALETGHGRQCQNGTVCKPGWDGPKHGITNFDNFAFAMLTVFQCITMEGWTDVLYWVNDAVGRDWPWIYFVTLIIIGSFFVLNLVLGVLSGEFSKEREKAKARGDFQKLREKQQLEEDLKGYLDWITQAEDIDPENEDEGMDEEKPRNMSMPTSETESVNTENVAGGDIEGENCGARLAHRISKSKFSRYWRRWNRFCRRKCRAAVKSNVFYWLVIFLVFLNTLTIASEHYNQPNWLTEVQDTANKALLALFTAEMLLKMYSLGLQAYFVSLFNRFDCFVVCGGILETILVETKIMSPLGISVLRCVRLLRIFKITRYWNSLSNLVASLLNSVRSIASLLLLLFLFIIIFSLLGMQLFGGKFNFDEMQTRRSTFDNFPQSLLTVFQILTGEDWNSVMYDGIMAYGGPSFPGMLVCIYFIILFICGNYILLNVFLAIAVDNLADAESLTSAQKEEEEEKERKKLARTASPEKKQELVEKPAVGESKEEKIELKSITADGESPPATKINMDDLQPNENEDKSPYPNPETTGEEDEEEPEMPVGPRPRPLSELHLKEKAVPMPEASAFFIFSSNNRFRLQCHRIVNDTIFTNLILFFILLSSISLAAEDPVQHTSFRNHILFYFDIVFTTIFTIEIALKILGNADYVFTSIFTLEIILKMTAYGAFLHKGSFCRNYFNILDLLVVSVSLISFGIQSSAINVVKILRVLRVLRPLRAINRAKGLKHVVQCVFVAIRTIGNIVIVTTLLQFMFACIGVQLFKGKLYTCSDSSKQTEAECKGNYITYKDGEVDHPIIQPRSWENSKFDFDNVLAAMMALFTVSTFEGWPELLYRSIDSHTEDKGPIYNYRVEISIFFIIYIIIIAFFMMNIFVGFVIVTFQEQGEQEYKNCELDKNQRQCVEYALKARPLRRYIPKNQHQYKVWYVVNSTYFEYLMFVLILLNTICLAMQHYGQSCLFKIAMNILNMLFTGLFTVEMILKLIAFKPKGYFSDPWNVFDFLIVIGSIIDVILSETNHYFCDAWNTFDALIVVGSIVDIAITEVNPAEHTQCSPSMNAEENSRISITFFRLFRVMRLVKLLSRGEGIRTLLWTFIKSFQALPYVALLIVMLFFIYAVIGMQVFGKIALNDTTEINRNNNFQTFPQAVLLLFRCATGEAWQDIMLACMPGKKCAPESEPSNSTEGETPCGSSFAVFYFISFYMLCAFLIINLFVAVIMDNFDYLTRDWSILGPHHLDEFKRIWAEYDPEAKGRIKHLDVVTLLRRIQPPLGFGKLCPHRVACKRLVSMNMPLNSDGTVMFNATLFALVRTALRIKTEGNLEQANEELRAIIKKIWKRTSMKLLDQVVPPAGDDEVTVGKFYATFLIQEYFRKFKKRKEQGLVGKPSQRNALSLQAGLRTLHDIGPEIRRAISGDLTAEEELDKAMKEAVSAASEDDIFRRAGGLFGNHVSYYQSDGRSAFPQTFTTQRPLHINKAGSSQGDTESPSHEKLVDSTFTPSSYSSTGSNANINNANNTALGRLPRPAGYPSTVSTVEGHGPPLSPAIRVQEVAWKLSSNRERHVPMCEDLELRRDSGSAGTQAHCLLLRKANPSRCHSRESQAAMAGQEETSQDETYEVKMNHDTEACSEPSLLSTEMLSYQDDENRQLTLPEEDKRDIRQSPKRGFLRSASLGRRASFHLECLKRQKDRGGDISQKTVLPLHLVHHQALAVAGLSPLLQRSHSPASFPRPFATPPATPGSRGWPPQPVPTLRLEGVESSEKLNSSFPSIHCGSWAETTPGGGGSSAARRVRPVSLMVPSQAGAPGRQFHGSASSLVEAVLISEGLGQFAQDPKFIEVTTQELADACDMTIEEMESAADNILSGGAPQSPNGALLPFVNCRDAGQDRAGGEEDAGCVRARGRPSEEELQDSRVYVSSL
Cav1.2 (h) calcium ion channel, sequence (Q08289 whole entry partner): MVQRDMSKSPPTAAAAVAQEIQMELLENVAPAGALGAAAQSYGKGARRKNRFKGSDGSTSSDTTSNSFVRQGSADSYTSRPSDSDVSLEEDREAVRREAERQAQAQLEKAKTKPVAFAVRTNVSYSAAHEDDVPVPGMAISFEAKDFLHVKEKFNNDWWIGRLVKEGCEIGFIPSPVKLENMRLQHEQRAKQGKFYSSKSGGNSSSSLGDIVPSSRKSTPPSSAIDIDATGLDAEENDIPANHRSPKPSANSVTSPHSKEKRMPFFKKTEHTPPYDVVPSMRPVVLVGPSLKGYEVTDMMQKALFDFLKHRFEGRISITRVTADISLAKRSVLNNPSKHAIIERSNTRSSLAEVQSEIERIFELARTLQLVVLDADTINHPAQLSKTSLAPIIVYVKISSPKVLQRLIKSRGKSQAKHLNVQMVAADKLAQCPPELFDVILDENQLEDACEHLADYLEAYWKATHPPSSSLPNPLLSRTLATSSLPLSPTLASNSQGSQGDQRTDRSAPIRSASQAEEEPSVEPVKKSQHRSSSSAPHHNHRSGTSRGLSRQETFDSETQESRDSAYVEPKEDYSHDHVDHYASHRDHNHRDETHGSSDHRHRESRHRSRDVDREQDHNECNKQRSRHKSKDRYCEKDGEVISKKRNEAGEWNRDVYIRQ
Cav1.2 (h) calcium ion channel, sequence (P54289 25-956 partner limits assumed): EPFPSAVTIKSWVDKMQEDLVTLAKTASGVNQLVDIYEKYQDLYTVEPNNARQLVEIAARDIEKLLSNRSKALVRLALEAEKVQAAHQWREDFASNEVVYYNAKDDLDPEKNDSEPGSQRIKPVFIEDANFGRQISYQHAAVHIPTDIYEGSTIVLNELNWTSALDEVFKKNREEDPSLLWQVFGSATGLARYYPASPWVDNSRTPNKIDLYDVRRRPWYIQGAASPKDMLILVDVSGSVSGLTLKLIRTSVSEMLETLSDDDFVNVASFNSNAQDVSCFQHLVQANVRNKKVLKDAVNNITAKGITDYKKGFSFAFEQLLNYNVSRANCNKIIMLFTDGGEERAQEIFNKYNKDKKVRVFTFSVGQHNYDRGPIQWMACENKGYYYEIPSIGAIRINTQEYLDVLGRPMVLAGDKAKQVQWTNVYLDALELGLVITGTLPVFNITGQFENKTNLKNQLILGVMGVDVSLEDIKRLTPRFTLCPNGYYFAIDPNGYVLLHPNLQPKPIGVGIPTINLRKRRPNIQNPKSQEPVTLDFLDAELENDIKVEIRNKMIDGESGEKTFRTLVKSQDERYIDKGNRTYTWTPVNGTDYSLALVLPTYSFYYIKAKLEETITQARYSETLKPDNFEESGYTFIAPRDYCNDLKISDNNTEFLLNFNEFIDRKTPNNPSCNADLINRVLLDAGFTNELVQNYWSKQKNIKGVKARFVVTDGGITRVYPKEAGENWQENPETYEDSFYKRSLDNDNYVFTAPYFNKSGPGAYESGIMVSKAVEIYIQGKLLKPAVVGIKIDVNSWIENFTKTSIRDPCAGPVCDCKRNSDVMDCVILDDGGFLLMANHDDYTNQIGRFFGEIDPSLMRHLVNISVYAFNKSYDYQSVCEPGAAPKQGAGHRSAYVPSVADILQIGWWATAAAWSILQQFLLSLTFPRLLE
Cav1.2 (h) calcium ion channel, sequence (P54289 957-1103 partner limits assumed): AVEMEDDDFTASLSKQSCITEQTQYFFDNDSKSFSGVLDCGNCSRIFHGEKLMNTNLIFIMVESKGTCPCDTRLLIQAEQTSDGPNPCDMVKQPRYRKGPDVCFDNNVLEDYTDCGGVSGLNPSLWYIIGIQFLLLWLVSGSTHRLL

Compound: CN(C)C1CC(=O)N(C(C(=O)N2CCN(c3cccc(C(F)(F)F)c3)CC2)c2ccccc2)C1=O.Cl (stereo not shown) [Compound 14, 3-(Dimethylamino)-1-(2-oxo-1-phenyl-2-(4-(3-(trifluoromethyl)phenyl)-piperazin-1-yl)ethyl)pyrrolidine-2,5-dione hydrochloride]
- maximal sodium current amplitude normalized to control (1.0) ([1]; 0.01 µM, p > 0.05, n = 5): 0.95 ± 0.05
- maximal sodium current amplitude normalized to control (1.0) ([1]; 0.1 µM, p < 0.05, n = 5): 0.84 ± 0.03
- maximal sodium current amplitude normalized to control (1.0) ([1]; 1 µM, p < 0.01, n = 5): 0.82 ± 0.05
- maximal sodium current amplitude normalized to control (1.0) ([1]; 10 µM, p < 0.01, n = 5): 0.77 ± 0.02
- maximal sodium current amplitude normalized to control, after drug wash-out ([1]; after application of 1 µM): 0.92 ± 0.02
- inhibition at 10 µM [2]: 29%
- ED50 [3]: 54.1 mg/kg
- ED50 ([4]; Mus musculus, ip, 95% confidence interval in parentheses): 31.3 mg/kg
- 6 Hz (32 mA) screening: number of mice protected / number of mice tested ([4]; 100 mg/kg, 0.5 h): 3/4
- protection in the 6 Hz (32 mA) test ([4]; 100 mg/kg, 0.5 h): 75%

From article PMC8658016, “Identification of New Compounds with Anticonvulsant and Antinociceptive Properties in a Group of 3-substituted (2,5-dioxo-pyrrolidin-1-yl)(phenyl)-Acetamides” (International Journal of Molecular Sciences, 2021)
